Test results taken from patent US20030171377A1, “Antidiabetic agents” (priority 2001, published 2003).

Tests used:
3T3-L1 preadipocytes = assay: 3T3-L1 Adipocyte Differentiation Assay (ADPDIFF), Test A; type: cell-based; settings: BODIPY lipid fluorescence, reported as % of BRL 49653 at 5 μM
Description: Cells are replenished with FBS containing media on day 5 of post-drug treatment and incubated for additional 4-6 days. Cells are stained with BODIPY a fluorescent lipophilic stain to quantitate the lipid content of the cells. The assay is optimized for a 96-well plate format. Approximately after 10 days of post-drug treatment, cells are fixed in 3% formalin solution for 15 min followed by staining with BODIPY (80 μg/ml) for 20 min at room temperature. The plate is then put through the CYTOFLUOR instrument to measure the fluorescence of BODIPY (excitation=485/20; emission=530/25).

[1] = Blood Glucose Measurement (Glucose Δ), Test D; type: in vivo, mice; design: key to Glucose Δ: change in blood glucose, mg/dL
Description: Test D—Blood Glucose Measurement (Glucose Δ) Glucose is obtained 4 hours post dose via tail vein stick (5 μl whole blood) in awake, 4 hour fasted animals. Blood is drawn by capillary action into a glucose cuvette and read in a HemoCue Glucose Analyzer (Ryan Diagnostics). Blood is diluted 1:2 with saline if glucose levels are greater than 400 mg/dl (meter high range) and results multiplied by two.

[2] = tested on: endogenous nuclear receptors in CV-1 cells; assay: CV-1 Native Receptors Transcription Assay (MKNRCV1), Test C; type: cell-based, African green monkey; settings: for EC50: Chlorocebus sabaeus, CV-1 cells, 48 hours, unit inferred
[3] = tested on: CV-1 cells (FATP promoter luciferase reporter, 300 nM BRL); assay: ANTCV1 Antagonist Transcription Assay, Test B; type: cell-based, African green monkey; settings: Chlorocebus sabaeus, 25 μM test compound with 300 nM BRL, 48 hrs, % BRL inhibition, read-out: ANTCV1 INHIB @ 25 μM

EC50 [2] [µM] | Compound | ADPDIFF % BRL @ 5 μM (3T3-L1 preadipocytes) [% BRL] | Glucose Δ ([1]; 4 hours post dose, 4 hour fasted animals, tail vein whole blood) | % BRL (in vivo, beside Glucose Δ) ([1]; glucose change relative to BRL) [% BRL] | MKNRCV1 % BRL @ 25 μM ([2]; percent activity of BRL 49653) [% BRL] | inhibition at 25 µM [3] [%] | MKNRCV1 % BRL @ 5 μM ([2]; 5 μM (stated in the cell), percent activity of BRL 49653)
– | CN(CCCc1ccc(C[C@@H](C(=O)O)n2cccc2)cc1)c1ccccc1 | 61 | 63.0 | −27.0 | 68 | – | –
– | CC(=O)c1cc(C)n([C@@H](Cc2ccc(OCCc3oc(-c4ccccc4)nc3C)cc2)C(=O)O)c1C | 0 | – | – | 27 | -15 | –
– | O=C(O)[C@H](Cc1ccc(/C=C/CN2CCC(c3ccccc3)CC2)cc1)n1cccc1 [drawing 292] | 183 | – | – | 40 | 44 | –
11.1 | CN(CCOc1ccc(CC(C(=O)O)n2ccc(C(=O)C3CCCCC3)c2)cc1)c1nc2ccccc2o1 (stereo not shown) | 112 | – | – | 65 | 4 | –
– | O=C(O)[C@H](Cc1ccc(OCCN2CCN(c3ccccc3)CC2)cc1)n1cccc1 | 82 | – | – | 32 | -40 | –
0.06 | Cc1oc(-c2ccccc2)nc1CCOc1ccc(C[C@@H](C(=O)O)n2ccc(Br)c2)cc1 | 84 | – | – | 85 | -57.5 | –
– | CC(=O)c1c(C(C)=O)c(C)n([C@@H](Cc2ccc(OCCc3nc(-c4ccccc4)oc3C)cc2)C(=O)O)c1C | 0 | – | – | 24 | 3 | –
– | Cc1oc(-c2ccccc2)nc1CCOc1ccc(CC(C(=O)O)c2ccncc2)cc1 (stereo not shown) | 2 | – | – | 20 | 55 | –
– | Cc1oc(-c2ccccc2)nc1CCOc1ccc(C[C@@H](C(=O)O)n2c(C)cc(Cl)c2C)cc1 | 28 | – | – | 55 | 5 | –
– | Cc1oc(-c2ccccc2)nc1CCOc1ccc(CC(C(=O)O)c2cccs2)cc1 (stereo not shown) | 88 | – | – | 111 | -127 | –
– | COC(=O)[C@H](Cc1ccc(CCCN(C)c2ccccc2)cc1)n1cccc1 | 73 | – | – | 71 | -2 | –
– | O=C(O)[C@H](Cc1ccc(CCCN2CCC(c3ccccc3)CC2)cc1)n1cccc1 [drawing 293] | 38 | – | – | 22 | 50 | –
9.2 | Cc1sc(-c2ccccc2)nc1CCOc1ccc(C[C@@H](C(=O)O)n2cccc2)cc1 [drawing 269] | 92 | – | – | 76 | -20 | –
– | O=C(O)[C@H](Cc1ccc(OCCCc2ccncc2)cc1)n1cccc1 | 3 | – | – | 44 | 3 | –
1.3 | O=C(O)[C@H](Cc1ccc(C#CCN2CCC(c3ccccc3)CC2)cc1)n1cccc1 [drawing 288] | 112 | – | – | 78 | -42 | –
5.6 | COC(=O)[C@H](Cc1ccc(C#CCN(C)c2ccccn2)cc1)n1cccc1 | 29 | – | – | 38 | 71 | –
– | O=C(c1ccn(C(Cc2ccc(OCc3ccccc3F)cc2)C(=O)O)c1)C1CCCCC1 (stereo not shown) | 12 | – | – | 28 | 1 | –
0.9 | Cc1oc(-c2ccccc2)nc1CCOc1ccc(CC(C(=O)O)n2ccc(-c3ccccc3)c2)cc1 (stereo not shown) | 125 | – | – | 54 | 29 | –
0.4 | O=C(O)[C@H](Cc1ccc(OCCc2ccccc2C(F)(F)F)cc1)n1cccc1 | 112 | – | – | 80 | -27 | –
– | CCCc1nnc([C@H](Cc2ccc(OCCc3nc(-c4ccccc4)oc3C)cc2)n2cccc2)o1 | 94 | – | – | 0 | 84 | –
– | CN(CCOc1ccc(C[C@@H](C(=O)O)n2cccc2)cc1)c1ccnc2cc(Cl)ccc12 | 1 | – | – | 83 | -87 | –
– | Cc1oc(-c2ccccc2)nc1CCOc1ccc(C[C@@H](c2nnco2)n2cccc2)cc1 | 45 | – | – | – | 49 | 37 @ 5 μM % BRL

EC50 [2] [µM] | Compound | ADPDIFF % BRL @ 5 μM (3T3-L1 preadipocytes) [% BRL] | Glucose Δ ([1]; 4 hours post dose, 4 hour fasted animals, tail vein whole blood) | % BRL (in vivo, beside Glucose Δ) ([1]; glucose change relative to BRL) [% BRL] | MKNRCV1 % BRL @ 25 μM ([2]; percent activity of BRL 49653) [% BRL] | inhibition at 25 µM [3] [%] | MKNRCV1 % BRL @ 5 μM ([2]; 5 μM (stated in the cell), percent activity of BRL 49653)
– | Cc1oc(-c2ccccc2)nc1CCOc1ccc(CC(C)(C)C(=O)O)cc1 [drawing 217] | 131 | – | – | 34 | 59 | –
– | Cc1oc(-c2ccccc2)nc1CCOc1ccc(C[C@@H](C(=O)O)n2c(C)ccc2C)cc1 | 26 | – | – | 11 | 80 | –
23.6 | Cc1oc(-c2ccccc2)nc1CCOc1ccc(CC(C(=O)O)n2ccc(C(=O)C(C)C)c2)cc1 (stereo not shown) | 120 | – | – | 70 | -10 | –
0.9 | CN(C/C=C/c1ccc(C[C@@H](C(=O)O)n2cccc2)cc1)c1ccccn1 | 94 | – | – | 92 | -36 | –
– | Cc1oc(-c2ccccc2)nc1CCOc1ccc(C[C@@H](C(=O)O)n2c(C)ccc2-c2ccccc2)cc1 | 2 | – | – | 24 | -3 | –
3.3 | Cc1oc(-c2ccccc2)nc1CCOc1ccc(C[C@@H](C(=O)NS(=O)(=O)c2ccccc2)n2cccc2)cc1 | 90 | – | – | 101 | -117 | –
– | CN(CC#Cc1ccc(CC(C(=O)O)n2cccc2)cc1)c1ccccn1 (stereo not shown) | 6 | – | – | 71 | -32 | –
13 | Cc1oc(-c2ccccc2)nc1CCOc1ccc(CC(C)(C(=O)O)c2ccccc2)cc1 (stereo not shown) [drawing 218] | 99 | – | – | 44 | 65 | –
2 | Cc1oc(-c2ccccc2)nc1CCOc1ccc(CC(C)(C(=O)O)n2cccc2)cc1 (stereo not shown) | 117 | – | – | 87 | -80.3 | –
– | CCc1nnc(C(Cc2ccc(OCCc3nc(-c4ccccc4)oc3C)cc2)c2ccccc2)o1 (stereo not shown) [drawing 225] | 161 | – | – | 61 | 47 | –
– | Cc1ccc(-c2ccccc2)n1[C@@H](Cc1ccc(OCc2ccccc2F)cc1)C(=O)O | 2 | – | – | 30 | -44 | –
16 | Cc1oc(-c2ccccc2)nc1CCOc1ccc(C[C@@H](C(=O)O)n2c(C)cc(C(=O)C(F)(F)F)c2C)cc1 | 2 | – | – | 28 | 12 | –
0.1 | COC(=O)[C@H](Cc1ccc(C#CCc2nc(-c3ccccc3)oc2C)cc1)n1cccc1 | 90 | – | – | 123 | -114 | –
– | Cc1oc(-c2ccccc2)nc1CCOc1ccc(CC(C(=O)O)N2CCCC2=O)cc1 (stereo not shown) | 0 | – | – | 29 | -94 | –
9.5 | Cc1oc(-c2ccccc2)nc1CCOc1ccc(CC(F)(C(=O)O)c2ccccc2)cc1 (stereo not shown) [drawing 216] | 122 | – | – | 63 | 37 | –
– | CN(CCOc1ccc(CC(C(=O)O)n2ccc(-c3ccccc3)c2)cc1)c1nc2ccccc2o1 (stereo not shown) | 113 | – | – | 59 | -41 | –
1.4 | O=C(O)[C@H](Cc1ccc(OCc2ccccc2F)cc1)n1cccc1 | 21 | – | – | 92 | -46 | –
4.7 | Cc1oc(-c2ccccc2)nc1CCOc1ccc(CC(C(=O)O)n2ccc(C(=O)C3CCCCC3)c2)cc1 (stereo not shown) | 82 | – | – | 83 | -12 | –
– | O=C(O)[C@H](Cc1ccc(OCCn2c(-c3ccccc3)nc3ccccc32)cc1)n1cccc1 | 19 | – | – | 39 | -69 | –
3.2 | Cc1oc(-c2ccccc2)nc1CCOc1ccc(C[C@@H](C(=O)NS(C)(=O)=O)n2cccc2)cc1 | 110 | – | – | 97 | -30 | –
– | Cc1oc(-c2ccccc2)nc1CCOc1ccc(C[C@H](C(=O)O)c2ccccc2)cc1 | 31 | – | – | 50 | -44 | –
